Reference: EP4733303A1, “MUSCARINIC M4 RECEPTOR AGONIST AND USE THEREOF” (Haisco Pharmaceutical Group Co., Ltd., priority 2023, dated 2024)
Blank lines part the entries; values can stand above or below the compound they belong to.

Tests used:
[1] = target: T1, M4 receptor (Homo sapiens, UniProt P08173); test: PAM agonistic activity of compound on M4 receptor (FLIPR Calcium 6 assay in M4-CHO cells); type: cell-based; conditions: with acetylcholine (Ach), final concentration 3 nM
T1 construct: expressed in transfected cells; host or cells: CHO (M4-CHO cells)
T1 sequence (P08173 1-479): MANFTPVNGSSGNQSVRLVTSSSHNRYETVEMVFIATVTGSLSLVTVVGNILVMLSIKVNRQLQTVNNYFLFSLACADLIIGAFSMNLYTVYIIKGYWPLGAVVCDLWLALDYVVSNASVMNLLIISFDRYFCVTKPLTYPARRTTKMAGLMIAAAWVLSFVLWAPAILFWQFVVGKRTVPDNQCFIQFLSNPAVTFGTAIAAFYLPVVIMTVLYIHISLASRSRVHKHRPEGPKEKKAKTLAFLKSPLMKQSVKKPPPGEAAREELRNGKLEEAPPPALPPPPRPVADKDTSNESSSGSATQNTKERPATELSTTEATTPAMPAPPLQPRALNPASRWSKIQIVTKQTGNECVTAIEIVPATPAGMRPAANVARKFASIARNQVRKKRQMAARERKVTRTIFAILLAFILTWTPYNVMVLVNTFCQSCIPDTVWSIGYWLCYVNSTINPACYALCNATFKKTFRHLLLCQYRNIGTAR
Procedure: • 1). Cell plating: M4-CHO cells were digested, collected, and resuspended. After cell counting, the cell suspension was seeded into a 384-well cell plate at a density of: 1.2 × 10^4 cells/25 µL/well. The cell plate was then cultured in a 37°C, 5% CO2 incubator for about 16-20 h. • 2). Day 2: Assay Buffer was prepared according to the instructions of the FLIPR Calcium 6 Assay Kit. Component A (20×) was thawed to room temperature and diluted with the Assay Buffer to prepare a loading buffer (1×), which was stored at room temperature until use. • 3). The culture medium was removed from the cell plate. 40 µL of the loading buffer (1×) was quickly added to each well. The cell plate was then centrifuged and incubated at 37°C in the dark for 120 min. • 4). Working solutions of the positive control compound and the test compounds were prepared. An acetylcholine (Ach) agonist compound solution was prepared (final concentration: 3 nM). The PAM compound and the Ach agonist solution were mixed at a 1 : 1 ratio, and the mixture was transferred into a 384-well compound source plate at 20 µL per well. • 5). The cell plate, the compound source plate, and the pipette tips were placed into the corresponding positions within the FLIPR instrument. 10 µL of the diluted compound from step 4 was added into each experimental well using the FLIPR Tetra. Data was collected at the wavelength of 515 nm-575 nm. • 6). The signal values were plotted against the compound concentrations. Nonlinear regression analysis was performed using GraphPad Prism software for curve fitting and EC50 calculation.
The experimental results are shown in Table 1, where A represents EC50 < […]; B represents 100 nM ≤ EC50 < 500 nM, and C represents 500 nM ≤ EC50. Table 1. Agonistic activity of compounds on M4 receptor

[2] = Pharmacokinetic test in rats (plasma and brain); type: in vivo, SD rats; conditions: for F: i.g. 10 mg/kg versus i.v. 2.5 mg/kg; for Cmax / clearance / half-life / AUC(0-t): plasma
Excerpt: 3.1 Experimental animals: male SD rats, about 220 g, 6-8 weeks old, divided into an intravenous group and an intragastric group.
3.2 Experimental design: on the day of the experiment, the SD rats were randomly grouped according to their body weights. […] Table 5. Administration information
(§1) The whole blood was centrifuged to separate the plasma; the brain tissue was rinsed with cold physiological saline to remove the residual blood on the surface, drained out and then homogenized. Before analysis and detection, all samples were stored at -80°C, and the samples were quantitatively analysed by LC-MS/MS. Table 6. Pharmacokinetic parameters of test compound in plasma of rats

[3] = Pharmacokinetic test in mice (plasma and brain); type: in vivo, C57 mice; conditions: for F: i.g. 10 mg/kg versus i.v. 2.5 mg/kg; for Kp / AUC(0-t) / Cmax / clearance / half-life: mouse; for Kp: read-out: Brain/plasma ratio
Excerpt: 2.1 Experimental animals: male C57 mice, 20-25 g, divided into an intravenous group and an intragastric group.
2.2 Experimental design: on the day of the experiment, the C57 mice were randomly grouped according to their body weights. […] Table 2. Administration information
as §1, with “3.” for “6.”, “compounds” for “compound”, “mice” for “plasma of rats”

[4] = Pharmacokinetic test in monkeys; type: in vivo; conditions: male cynomolgus monkeys
Procedure: Experimental animals: male cynomolgus monkeys, 3-5 kg, 3-6 years old, divided into an intravenous group and an intragastric group.
Experimental method: on the day of the experiment, the monkeys were randomly grouped according to their body weights. […] Table 9. Administration information
Before and after the administration, 1.0 mL of blood was taken from the limb veins and placed in an EDTAK2 centrifuge tube. Centrifugation was carried out at 5000 rpm at 4°C for 10 min, and the plasma was collected. […] Before analysis and detection, all samples were stored at -80°C, and the samples were quantitatively analysed by LC-MS/MS. Table 10. Pharmacokinetic parameters of test compound in plasma of monkeys

[5] = rat, in vivo, male SD rats, i.v. 2.5 mg/kg and i.g. 10 mg/kg groups, route of the parameter not given
[6] = male C57 mice, plasma, i.v. 2.5 mg/kg and i.g. 10 mg/kg groups, route of the parameter not given
[7] = male C57 mice, plasma, i.v. 2.5 mg/kg and i.g. 10 mg/kg groups, route of the parameter not given, read-out: AUC0-t
[8] = in vivo, male C57 mice, plasma, i.v. 2.5 mg/kg and i.g. 10 mg/kg groups, route of the parameter not given
[9] = rat, male SD rats, i.v. 2.5 mg/kg and i.g. 10 mg/kg groups, route of the parameter not given
[10] = cynomolgus monkey, plasma, i.v. 1 mg/kg and i.g. 5 mg/kg groups, route of the parameter not given

Compound: Cc1cc(C)c2c(n1)CN(C(=O)CC1CN(c3ccnc(-n4ccc(C)n4)c3)C1)C2 [Compound 29]
EC50 [1]: < 100 nM | F ([2]; male SD rats): >98% | Cmax [2, 5]: 7960 ng/mL | clearance [2, 5]: 18.9 mL/min/kg | half-life [2, 5]: 0.646 h | AUC(0-t) ([2]; rat, in vivo, male SD rats, i.v. 2.5 mg/kg and i.g. 10 mg/kg groups, route of the parameter not given, read-out: AUC0-t): 12200 ng·h/mL

Compound: Cc1cc(-c2cnn(C)c2)nc2c1CN(C(=O)CC1CN(c3ccnc(OC4CC(F)(F)C4)c3)C1)C2 [Compound 104]
EC50 [1]: < 100 nM | F ([3]; male C57 mice): >98% | Brain tissue AUC0-t ([3]; mice, i.g. (10 mg/kg)): 4776 ng·h/g | Kp ([3]; in vivo, po, mice, i.g. (10 mg/kg)): 0.528 | AUC(0-t) ([3]; in vivo, po, mice, i.g. (10 mg/kg), read-out: Plasma AUC0-t): 2520 ng·h/mL | Cmax [3, 6]: 4540 ng/mL | clearance [3, 6]: 11.1 mL/min/kg | half-life [3, 6]: 2.2 h | AUC(0-t) [3, 7]: 16900 ng·h/mL

Compound: Cc1nc(-c2cnn(C)c2)nc2c1CN(C(=O)CC1CN(c3ccnc(C(F)(F)F)c3)C1)C2 [Compound 122]
EC50 [1]: < 100 nM | F ([3]; male C57 mice): >98% | Cmax [3, 8]: 6400 ng/mL | clearance [3, 8]: 9.24 mL/min/kg | half-life [3, 8]: 2.94 h | AUC(0-t) ([3]; in vivo, male C57 mice, plasma, i.v. 2.5 mg/kg and i.g. 10 mg/kg groups, route of the parameter not given, read-out: AUC0-t): 26300 ng·h/mL

Compound: Cc1cc(=O)n(C(F)F)c2c1CN(C(=O)CC1CN(c3ccnc(OC4CC(F)(F)C4)c3)C1)C2 [Compound 128]
EC50 [1]: < 100 nM | F ([3]; male C57 mice): >98% | Brain tissue AUC0-t ([3]; mice, i.g. (10 mg/kg)): 5618 ng·h/g | Kp ([3]; brain/plasma, po, mice, i.g. (10 mg/kg)): 0.581 | AUC(0-t) ([3]; plasma, po, mice, i.g. (10 mg/kg), read-out: Plasma AUC0-t): 9680 ng·h/mL | Cmax [3, 6]: 6030 ng/mL | clearance [3, 6]: 6.91 mL/min/kg | half-life [3, 6]: 2.25 h | AUC(0-t) [3, 7]: 25700 ng·h/mL | F ([2]; male SD rats): >98% | Kp ([2]; rat, brain/plasma, po, rats, i.g. (10 mg/kg), read-out: Brain/plasma ratio): 0.497 | AUC(0-t) ([2]; rat, po, rats, i.g. (10 mg/kg), read-out: Plasma AUC0-t): 46100 ng·h/mL | Cmax [2, 9]: 5140 ng/mL | clearance [2, 9]: 6.33 mL/min/kg | half-life [2, 9]: 4.68 h | AUC(0-t) ([2]; rat, male SD rats, i.v. 2.5 mg/kg and i.g. 10 mg/kg groups, route of the parameter not given, read-out: AUC0-t): 34000 ng·h/mL | Brain tissue AUC0-t ([2]; rats, i.g. (10 mg/kg)): 22917 ng·h/g | AUC(0-t) [4, 10]: 5940 ng·h/mL | Cmax [4, 10]: 495 ng/mL | clearance [4, 10]: 10.1 mL/min/kg | half-life [4, 10]: 7.19 h | F ([4]; i.g. 5 mg/kg versus i.v. 1 mg/kg): 71.4%

Compound: Cc1cc(S(C)(=O)=O)nc2c1CN(C(=O)CC1CN(c3ccnc(OC4CC(F)(F)C4)c3)C1)C2 [Compound 188]
EC50 [1]: < 100 nM

Compound: Cc1c2c(n(C(F)F)c(=O)c1F)CN(C(=O)CC1CN(c3ccnc(OC4CC4)c3)C1)C2 [Compound 195]
EC50 [1]: < 100 nM

Compound: Cc1c2c(n(C)c(=O)c1F)CN(C(=O)CC1CN(c3ccnc(OC4CCOC4)c3)C1)C2 (stereo not drawn) [Compound 199]
EC50 [1]: < 100 nM

Compound: Cc1cc(=O)n(C(F)F)c2c1CN(C(=O)CC1CN(c3ccnc(OC4CC(=C(F)F)C4)c3)C1)C2 (stereo not drawn) [Compound 200]
EC50 [1]: < 100 nM

Compound: Cc1c2c(n(C(F)F)c(=O)c1F)CN(C(=O)CC1CN(c3ccnc(OC4CC(=C(F)F)C4)c3)C1)C2 (stereo not drawn) [Compound 201]
EC50 [1]: < 100 nM

Compound: Cc1c2c(n(C)c(=O)c1F)CN(C(=O)CC1CN(c3ccnc(OC4CC(=C(F)F)C4)c3)C1)C2 (stereo not drawn) [Compound 213]
EC50 [1]: < 100 nM

Compound: Cc1c2c(n(C)c(=O)c1F)CN(C(=O)CC1CN(c3ccnc(Oc4cnn(C)c4)c3)C1)C2 [Compound 214]
EC50 [1]: < 100 nM

Results, then the compound that gave them:

EC50 [1]: < 100 nM
Compound: Cc1ccn(-c2cc(N3CC(CC(=O)N4Cc5c(C)cc(=O)n(C(F)F)c5C4)C3)ccn2)n1 [Compound 179]

EC50 [1]: < 100 nM
Compound: Cc1cc(=O)n(C(F)F)c2c1CN(C(=O)CC1CN(c3ccnc(OC4CCOC4)c3)C1)C2 (stereo not drawn) [Compound 180]

EC50 [1]: < 100 nM
Compound: Cc1cc(=O)n(C(F)F)c2c1CN(C(=O)CC1CN(c3ccnc(Oc4cnn(C)c4)c3)C1)C2 [Compound 182]

EC50 [1]: < 100 nM
Compound: C=C1CC(Oc2cc(N3CC(CC(=O)N4Cc5c(C)cc(=O)n(C(F)F)c5C4)C3)ccn2)C1 [Compound 184]

EC50 [1]: < 100 nM
Compound: Cc1cc(C)c2c(n1)CN(C(=O)CC1CN(c3ccnc(Cn4cc(C(F)(F)F)cn4)c3)C1)C2 [Compound 189]

EC50 [1]: < 100 nM
Compound: Cc1c2c(n(C(F)F)c(=O)c1F)CN(C(=O)CC1CN(c3ccnc(OC4CCOC4)c3)C1)C2 (stereo not drawn) [Compound 198]

EC50 [1]: < 100 nM
Compound: Cc1cc(-c2cnn(C)c2)nc2c1CN(C(=O)CC1CN(c3nc(C4CC4)ncc3F)C1)C2 [Compound 204]

EC50 [1]: < 100 nM
Compound: Cc1nc(-c2cnn(C)c2)nc2c1CN(C(=O)CC1CN(c3nc(C4CC4)ncc3F)C1)C2 [Compound 207]

EC50 [1]: < 100 nM
Compound: Cc1ccn(-c2cc(N3CC(CC(=O)N4Cc5c(C)c(F)c(=O)n(C(F)F)c5C4)C3)ccn2)n1 [Compound 208]

EC50 [1]: < 100 nM
Compound: Cc1ccn(-c2cc(N3CC(CC(=O)N4Cc5c(C)c(F)c(=O)n(C)c5C4)C3)ccn2)n1 [Compound 209]

EC50 [1]: < 100 nM
Compound: Cc1c2c(n(C)c(=O)c1F)CN(C(=O)CC1CN(c3ccnc(OC4CCOC4)c3)C1)C2 (stereo not drawn) [Compound 210]

EC50 [1]: < 100 nM
Compound: Cc1ncn(-c2cc(N3CC(CC(=O)N4Cc5c(C)c(F)c(=O)n(C)c5C4)C3)ccn2)n1 [Compound 211]

EC50 [1]: < 100 nM
Compound: Cc1c2c(n(C)c(=O)c1F)CN(C(=O)CC1CN(c3ccnc(OC4CC4)c3)C1)C2 [Compound 215]

EC50 [1]: < 100 nM
Compound: Cc1cc(-c2cnoc2)nc2c1CN(C(=O)CC1CN(c3ccnc(OC4CC(F)(F)C4)c3)C1)C2 [Compound 216]

F ([3]; male C57 mice): >98% | Cmax [3, 6]: 3800 ng/mL | clearance [3, 6]: 75.1 mL/min/kg | half-life [3, 6]: 1.23 h | AUC(0-t) [3, 7]: 3610 ng·h/mL
Compound: Cc1cc(C)c2c(n1)CN(C(=O)CC1CN(c3ccnc(C(F)(F)F)c3)C1)C2 [DZ-01, reference compound]
